According to ChEMBL document CHEMBL5244252, “PROTAC: A promising technology for cancer treatment” (Eur J Med Chem, 2020):
One block for each compound: values may come before it.

Columns and labels:
[1] = molecular target: Cellular tumor antigen p53 (Homo sapiens) (UniProt P04637); test: Induction of p53 stabilization in human HCT-116 cells assessed as fold increase by Western blot analysis; type: cell-based
[2] = Antiproliferative activity against human HBL1 cells expressing BTK C481S mutant assessed as growth inhibition; type: functional
[3] = molecular target: T1, Steroid hormone receptor ERR1 (Homo sapiens) (UniProt P11474); test: In vivo protac activity at ERRalpha in human MDA-MB-231 cells xenografted mouse assessed as reduction in ERRalpha level in tumor at 100 mg/kg, ip administered 3 times a day; type: functional, organism-based; set-up: scale not given: the % may be the effect or the level left
T1 sequence (whole entry): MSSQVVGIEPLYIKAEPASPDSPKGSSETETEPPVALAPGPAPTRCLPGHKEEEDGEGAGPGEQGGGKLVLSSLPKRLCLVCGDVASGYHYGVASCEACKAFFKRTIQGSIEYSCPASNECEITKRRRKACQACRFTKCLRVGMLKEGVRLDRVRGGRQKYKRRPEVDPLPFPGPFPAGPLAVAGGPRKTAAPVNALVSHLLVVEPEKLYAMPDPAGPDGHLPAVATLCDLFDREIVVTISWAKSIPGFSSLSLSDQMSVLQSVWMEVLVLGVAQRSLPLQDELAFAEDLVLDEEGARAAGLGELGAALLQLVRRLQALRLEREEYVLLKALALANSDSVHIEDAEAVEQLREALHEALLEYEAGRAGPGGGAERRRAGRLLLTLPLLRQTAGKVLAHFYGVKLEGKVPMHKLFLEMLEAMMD

[4] = molecular target: von Hippel-Lindau disease tumor suppressor/Steroid hormone receptor ERR1 (Homo sapiens) (UniProt P11474+P40337); test: Protac activity at VHL/ERRalpha in human MCF7 cells assessed as maximum degradation; type: cell-based
von Hippel-Lindau disease tumor suppressor/Steroid hormone receptor ERR1 (Homo sapiens), sequence (P40337 whole entry, looked up, one chain of several): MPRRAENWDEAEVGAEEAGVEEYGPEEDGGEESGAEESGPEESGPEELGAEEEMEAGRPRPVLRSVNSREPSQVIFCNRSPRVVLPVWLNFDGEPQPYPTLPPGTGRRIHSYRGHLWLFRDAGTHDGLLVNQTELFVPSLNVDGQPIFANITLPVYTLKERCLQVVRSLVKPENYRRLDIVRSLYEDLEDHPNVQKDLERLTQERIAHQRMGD

Cellular tumor antigen p53 (Homo sapiens), sequence (P04637 whole entry, looked up): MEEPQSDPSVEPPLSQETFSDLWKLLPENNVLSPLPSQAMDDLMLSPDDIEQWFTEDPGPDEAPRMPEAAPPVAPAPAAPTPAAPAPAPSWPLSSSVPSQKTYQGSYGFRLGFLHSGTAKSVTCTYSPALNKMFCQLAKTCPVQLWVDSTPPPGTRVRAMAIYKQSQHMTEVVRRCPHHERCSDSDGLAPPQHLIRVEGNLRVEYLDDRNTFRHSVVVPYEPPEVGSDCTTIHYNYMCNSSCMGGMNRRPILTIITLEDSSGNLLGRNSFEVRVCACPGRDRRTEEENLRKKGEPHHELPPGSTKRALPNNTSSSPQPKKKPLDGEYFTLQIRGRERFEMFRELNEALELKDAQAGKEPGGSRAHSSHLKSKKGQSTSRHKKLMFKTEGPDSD

fold change (FC) [1]: 5.9
Compound: COc1cc(C(=O)NCCOCCOCCOCCNC(=O)C[C@@H]2N=C(c3ccc(Cl)cc3)C3C(C)=C(C)SC3n3c(C)nnc32)ccc1NC(=O)[C@@H]1N[C@@H](CC(C)(C)C)[C@](C#N)(c2ccc(Cl)cc2F)[C@H]1c1cccc(Cl)c1F (stereo not given in full)

Compound: C=CC(=O)N1CCC[C@@H](n2nc(-c3ccc(Oc4ccccc4)cc3)c3c(N)ncnc32)C1 [IBRUTINIB]
GI50 [2]: 700 nM

Activity [3]: 39%
Emax [4]: 86%
Compound: COc1cc(/C=C2/SC(=O)N(CCOCCC(=O)N[C@@H](C(=O)N3C[C@H](O)C[C@H]3C(=O)Nc3ccc(-c4scnc4C)cc3)C(C)(C)C)C2=O)ccc1Oc1ccc(C#N)cc1C(F)(F)F

Compound: Nc1ncnc2c1c(-c1ccc(Oc3ccccc3)cc1)nn2[C@@H]1CCCN(C(=O)c2cn(CCOCCOCCOCCNc3cccc4c3C(=O)N(C3CCC(=O)NC3=O)C4=O)nn2)C1 (stereo not given in full)
GI50 [2]: 28 nM
